Measured values reported in patent US20020177572A1, “Viral infection of cells” (priority 1997, published 2002).
Residues, ends and D or L forms follow the SMILES beside them. *: point of attachment. Cbz = O=C(OCc1ccccc1)*; OtBu = CC(C)(C)O*

What was measured:
[1] = test system: M-CSF-treated human monocytes; assay: Cytokine production in response to various stimuli (ELISA); type: cell-based; conditions: production induced by the stimulus; means of 4-11 experiments
Experimental: The elutriated human monocytes were incubated at approximately 2×10^6/ml in RPMI 1640 with 25 mM HEPES and 2 mM L-glutamine, supplemented with 5% (v/v) heat inactivated fetal calf serum and 10 units/ml penicillin/streptomycin. […] The cells were then replated on 100 mm Petri dishes and infected for 2 h with a m.o.i. of between 10:1 and 120:1 (in most experiments, 20:1. 40:1 or 80:1 was used) of either AdvIκBα or Adv0, in serum-free RPMI 1640. Cells were then incubated in RPMI 1640 supplemented as above for 48 h to allow for significant over-expression of IκBα, as assessed. During the changes of medium involved, non-adherent cells were discarded, resulting in a further purification of monocyte-derived macrophages.
(§1) In the assays for cytokine production, cells were replated at 5×10^5 cells per well on a 96-well dish, and stimulated as above for 4 or 16 h. Supernatants were analysed for TNFα (27), IL-1β, IL-6 and IL-8 (23), IL-10 (29, 30), IL-1ra and the p55 and p75 soluble TNF receptors (31) by ELISA. The proteosome inhibitor Cbz-Ile-Glu(O-t-Bu)-Ala-leucinal (PSI) was obtained from Calbiochem (Nottingham. England).
LPS is capable of inducing all the cytokines (TNFα, IL-1β, IL-6, IL-8) and inhibitors (IL-10, IL-1ra and the soluble TNF receptors) assayed in this study (Table I; the results are means of 4-11 experiments). The induction of TNFα mRNA by zymosan, has previously been reported to be far weaker than LPS-induced TNFα mRNA in mouse peritoneal macrophages (32), but the TNFα response to zymosan in M-CSF-treated human monocytes was equal to that of LPS (Table 1).

[2] = test system: human monocyte-derived macrophages; assay: Effect of proteosome inhibitor PSI on induced TNFα production; type: cell-based; conditions: FIG. 14
Experimental: as §1
The independence from NFκB of zymosan induced TNF was further emphasised by studies with the proteosome inhibitor PSI. Inhibition of proteosome function inhibits IκBα degradation thus preventing NFκB nuclear translocation.

primary human monocytes = assay: Adenoviral infection of primary human monocytes (β-galactosidase expression by FACS); type: cell-based; conditions: prior cytokine treatment for 72 hours, then β-galactosidase adenovirus at 100 m.o.i.
Experimental: Human monocytes or murine RAW 264.7 were cultured at 5×10^5/ml in RPM1 1640 (Bio Whittaker inc.) supplemented with 5% (v/v) heat inactivated foetal calf serum containing 10 units/ml penicillin/streptomycin and 2 mM glutamine at 37° C. Monocytes were treated with GM-CSF (5U/ml) or M-CSF (1 μg/ml) for 72 hours. Expression of integrins was assayed by indirect immunofluorescence and FACS analysis using monoclonal antibodies to αVβ3 (100 μg/ml LM609, provided by IXSYS Corp. (San Diego Calif. USA), or αVβ5 (undiluted active supernatant kindly provided by J. Gamble Smith). The commercially available monoclonal antibody OX14(100 μg/ml) was used as a negative control.
Following cytokine treatment monocytes were washed in RPM 1640 and resuspended at 5×10^5 cells/ml. The cells were infected with virus at the indicated plaque forming units per cell (multiplicity of infection—m.o.i.). β-galactosidase expression in individual cells was measured by FACS.

U937 = assay: Adenovirus infection and integrin induction in U937 cell line; type: cell-based, human; conditions: results not shown
THP-1 = assay: Adenovirus infection and integrin induction in THP-1 cell line; type: cell-based, human; conditions: results not shown

C[C@H](CCC(=O)O)C[C@H](C)C[C@H](C)C(=O)/C=C(\O)[C@H](C)C[C@H](C)C/C=C/[C@@H](C)[C@@H](O)[C@@H](C)[C@@H](O)C[C@@H]1CC[C@@](C)([C@H]2CC[C@@](C)([C@@H](C)O)O2)O1 [Lomycin, ionomycin]
Anti-inflammatory cytokines: IL-10 [1]: 0 pg/mL | Anti-inflammatory cytokines: IL-tra [1]: 0 pg/mL | Anti-inflammatory cytokines: P55 s TNF-R [1]: 0 pg/mL | Anti-inflammatory cytokines: P75 s TNF-R [1]: 0 pg/mL | Proinflammatory cytokines: IL-1 [1]: 0 pg/mL | Proinflammatory cytokines: IL-6 [1]: 0 pg/mL | Proinflammatory cytokines: IL-8 [1]: 900 pg/mL | Proinflammatory cytokines: TNFα [1]: 0 pg/mL

CCCCCCCCCCCCCC(=O)O[C@@H]1[C@@H](C)[C@@]2(O)[C@@H](C=C(CO)C[C@]3(O)C(=O)C(C)=C[C@@H]23)[C@@H]2C(C)(C)[C@]12OC(C)=O [PMA]
Anti-inflammatory cytokines: IL-10 [1]: 0 pg/mL | Anti-inflammatory cytokines: IL-tra [1]: 1000 pg/mL | Anti-inflammatory cytokines: P55 s TNF-R [1]: 0 pg/mL | Anti-inflammatory cytokines: P75 s TNF-R [1]: 500 pg/mL | Proinflammatory cytokines: IL-1 [1]: 400 pg/mL | Proinflammatory cytokines: IL-6 [1]: 300 pg/mL | Proinflammatory cytokines: IL-8 [1]: 3000 pg/mL | Proinflammatory cytokines: TNFα [1]: 6000 pg/mL

CC[C@H](C)[C@H](NC(=O)OCc1ccccc1)C(=O)N[C@@H](CCC(=O)OC(C)(C)C)C(=O)N[C@@H](C)C(=O)N[C@H](C=O)CC(C)C [PSI, Cbz-Ile-Glu(O-t-Bu)-Ala-leucinal] (Cbz-IE(OtBu)AL-aldehyde)
effect on LPS induced TNF production ([2]; LPS): very effective in blocking | effect on zymosan-induced TNF production ([2]; zymosan): did not affect

GM-CSF: granulocyte-macrophage colony stimulating factor
cells expressing the β-galactosidase gene (primary human monocytes): 52% | induction of αVβ3 or αVβ5 expression (U937): neither cytokine was able to induce | induction of αVβ3 or αVβ5 expression (THP-1): neither cytokine was able to induce

TNFα
Anti-inflammatory cytokines: IL-10 [1]: 0 pg/mL | Proinflammatory cytokines: IL-1 [1]: 200 pg/mL | Proinflammatory cytokines: IL-6 [1]: 2000 pg/mL

B1: M-CSF: macrophage colony stimulating factor (protein, UniProt P09603 33-554, looked up)
Macrophage colony-stimulating …: EEVSEYCSHMIGSGHLQSLQRLIDSQMETSCQITFEFVDQEQLKDPVCYLKKAFLLVQDIMEDTMRFRDNTPNAIAIVQLQELSLRLKSCFTKDYEEHDKACVRTFYETPLQLLEKVKNVFNETKNLLDKDWNIFSKNCNNSFAECSSQDVVTKPDCNCLYPKAIPSSDPASVSPHQPLAPSMAPVAGLTWEDSEGTEGSSLLPGEQPLHTVDPGSAKQRPPRSTCQSFEPPETPVVKDSTIGGSPQPRPSVGAFNPGMEDILDSAMGTNWVPEEASGEASEIPVPQGTELSPSRPGGGSMQTEPARPSNFLSASSPLPASAKGQQPADVTGTALPRVGPVRPTGQDWNHTPQKTDHPSALLRDPPEPGSPRISSLRPQGLSNPSTLSAQPQLSRSHSSGSVLPLGELEGRRSTRDRRSPAEPEGGPASEGAARPLPRFNSVPLTDTGHERQSEGSFSPQLQESVFHLLVPSVILVLLAVGGLLFYRWRRRSHQEPQRADSPLEQPEGSPLTQDDRQVELPV
cells expressing the β-galactosidase gene (primary human monocytes): 90% | induction of αVβ3 or αVβ5 expression (U937): neither cytokine was able to induce | induction of αVβ3 or αVβ5 expression (THP-1): neither cytokine was able to induce
